Some test systems named below: 786-0 renal; A498 renal; A549 NSCLC; ACHN renal; BT-549 breast; CAKI-1 renal; CCRF-CEM leukemia; COLO 205 colon; DU-145 prostate; EKVX NSCLC; HCC-2998 colon; HCT-116 colon; HCT-15 colon; HL-60(TB) leukemia; HOP-62 NSCLC; HOP-92 NSCLC; HS 578T breast; HT29 colon; IGROV1 ovarian; K-562 leukemia; KM12 colon; LOX IMVI melanoma; M14 melanoma; MALME-3M melanoma; MCF7 breast; MDA-MB-435; MDA-MB-468 breast; MOLT-4 leukemia; NCI-H226 lung; NCI-H23 lung; NCI-H460 lung; NCI-H522 lung; NCI/ADR-RES ovarian; OVCAR-3 ovarian; OVCAR-4 ovarian; OVCAR-5 ovarian; OVCAR-8 ovarian; PC-3 prostate; RPMI-8226 leukemia; RXF 393 renal; SF-268 CNS; SF-295 CNS; SF-539 CNS; SK-MEL-28 melanoma; SK-MEL-5 melanoma; SK-OV-3 ovarian; SN12C renal; SNB-19 CNS; SR leukemia; SW-620 colon; T-47D breast; TK-10 renal; U251 CNS; UACC-257 melanoma; UACC-62 melanoma.

Common to all, as to test: NCI anticancer screen, dose series, 48 h

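Step 1: Grow cells in 96-well plates. Step 2: Expose to compound for 48 hours at 5 concentrations. Step 3: Interpolate endpoints linearly; if unreached, use highest concentration. GI50: concentration for 50% inhibition of growth. At the TGI there is no net growth.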 A value given as a limit tells only on which side of the number the result lay.

Regarding `O=C1NC(=S)/C(=C/c2cn(-c3ccccc3)nc2-c2ccccc2)S1`, the GI50 in the assay on 786-0 renal is 4.79 µM; with A498 renal it was 5.6 µM; in the assay on A549 NSCLC it was 6.74 µM; in the assay on ACHN renal it was 8.33 µM; in the assay with BT-549 breast it was 2.65 µM; with CAKI-1 renal, 9.4 µM. Besides, the GI50 is 4.35 µM in the assay on CCRF-CEM leukemia; 11.9 µM with COLO 205 colon; 9.48 µM with DU-145 prostate; 4.1 µM in the assay with EKVX NSCLC; 10.6 µM in the assay with HCC-2998 colon; 5.57 µM with HCT-116 colon. The GI50 with HCT-15 colon was 4.29 µM; with HL-60(TB) leukemia, 3.94 µM; in the assay on HOP-62 NSCLC, 22.8 µM; in the assay with HOP-92 NSCLC it was 2.3 µM; with HS 578T breast, 5.73 µM; in the assay on HT29 colon it was 9.99 µM. The GI50 was 6.46 µM in the assay on IGROV1 ovarian; 5.38 µM in the assay on K-562 leukemia; 5.8 µM with KM12 colon; 13.4 µM with LOX IMVI melanoma; 4.82 µM with M14 melanoma; 4.85 µM in the assay on MALME-3M melanoma. For the same compound, the GI50 in the assay with MCF7 breast was 4.03 µM; in the assay on MDA-MB-435 it was 5.49 µM; with MDA-MB-468 breast, 3.13 µM; in the assay with MOLT-4 leukemia, 3.91 µM; with NCI-H226 lung, 13.4 µM; in the assay with NCI-H23 lung, 4.86 µM. The GI50 in the assay with NCI-H460 lung is 4.89 µM; with NCI-H522 lung it was 4.39 µM; with NCI/ADR-RES ovarian it was 7.3 µM; in the assay with OVCAR-3 ovarian, 7.1 µM; in the assay on OVCAR-4 ovarian it was 5.24 µM; in the assay with OVCAR-5 ovarian, 22 µM. The GI50 in the assay with OVCAR-8 ovarian was 16.1 µM; with PC-3 prostate, 5.76 µM; in the assay on RPMI-8226 leukemia, 3.57 µM; in the assay on RXF 393 renal, 17.1 µM; in the assay on SF-268 CNS, 6.07 µM; with SF-295 CNS, 8.61 µM. Also, the GI50 in the assay with SF-539 CNS was 6.5 µM; with SK-MEL-28 melanoma, 5.31 µM; in the assay with SK-MEL-5 melanoma it was 2.59 µM; in the assay with SK-OV-3 ovarian it was 6.82 µM; with SN12C renal, 4.73 µM; with SNB-19 CNS, 4.91 µM. The GI50 in the assay with SR leukemia was 6.65 µM; in the assay on SW-620 colon, 9.67 µM; in the assay on T-47D breast it was 4.41 µM; in the assay with TK-10 renal it was 12.5 µM; in the assay with U251 CNS it was 7.49 µM; in the assay on UACC-257 melanoma, 6.36 µM. In addition, the GI50 with UACC-62 melanoma is 3.49 µM. In addition, the TGI is greater than 100 µM with 786-0 renal; 41.3 µM in the assay on A498 renal; greater than 100 µM in the assay with A549 NSCLC; greater than 100 µM in the assay on ACHN renal; 11.3 µM with BT-549 breast; greater than 100 µM in the assay on CAKI-1 renal. Besides, the TGI is greater than 100 µM with CCRF-CEM leukemia; 32 µM with COLO 205 colon; greater than 100 µM with DU-145 prostate; greater than 100 µM with EKVX NSCLC; 44.6 µM in the assay with HCC-2998 colon; greater than 100 µM in the assay with HCT-116 colon. Besides, the TGI was 33.8 µM in the assay on HCT-15 colon; 36.6 µM in the assay on HL-60(TB) leukemia; greater than 100 µM with HOP-62 NSCLC; 9.73 µM in the assay on HOP-92 NSCLC; 91.6 µM in the assay on HS 578T breast; 37.1 µM with HT29 colon. In addition, the TGI is 45.2 µM with IGROV1 ovarian; greater than 100 µM with K-562 leukemia; 40.2 µM with KM12 colon; greater than 100 µM with LOX IMVI melanoma; greater than 100 µM with M14 melanoma; 35.8 µM with MALME-3M melanoma. Besides, the TGI with MCF7 breast is greater than 100 µM; in the assay with MDA-MB-435, greater than 100 µM; in the assay on MDA-MB-468 breast it was 21.8 µM; in the assay on MOLT-4 leukemia, 34.4 µM; with NCI-H226 lung, greater than 100 µM; in the assay on NCI-H23 lung, 51.6 µM. In addition, the TGI in the assay on NCI-H460 lung is 26.2 µM; with NCI-H522 lung, 19.3 µM; with NCI/ADR-RES ovarian it was greater than 100 µM; in the assay on OVCAR-3 ovarian it was 27.1 µM; in the assay on OVCAR-4 ovarian, greater than 100 µM; in the assay on OVCAR-5 ovarian, greater than 100 µM. The TGI with OVCAR-8 ovarian was 80.8 µM; in the assay with PC-3 prostate, greater than 100 µM; in the assay with RPMI-8226 leukemia, 94.7 µM; with RXF 393 renal, 71.6 µM; in the assay on SF-268 CNS it was greater than 100 µM; in the assay on SF-295 CNS, 32.7 µM. Also, the TGI with SF-539 CNS was 21.8 µM; in the assay with SK-MEL-28 melanoma it was greater than 100 µM; with SK-MEL-5 melanoma it was 7.45 µM; in the assay on SK-OV-3 ovarian, 81.2 µM; with SN12C renal it was greater than 100 µM; in the assay with SNB-19 CNS it was greater than 100 µM. For the same compound, the TGI is 32.3 µM in the assay on SR leukemia; greater than 100 µM in the assay with SW-620 colon; greater than 100 µM with T-47D breast; greater than 100 µM in the assay with TK-10 renal; greater than 100 µM in the assay with U251 CNS; greater than 100 µM in the assay on UACC-257 melanoma. Moreover, the TGI with UACC-62 melanoma is 15.3 µM.

With `CC1=CC(C)(C)Nc2ccc(Cc3ccc4c(c3)C(C)=CC(C)(C)N4)cc21`, in the assay on MDA-MB-468 breast, the GI50 is 3.81 µM and the TGI worked out at 16.2 µM.

In the case of `C[C@H]1COCCN1c1nc(-c2cnc(N)cc2C(F)F)nc(N2CCOCC2)n1`, in the assay with MDA-MB-468 breast, the GI50 is 0.108 µM and the TGI turned out to be 0.732 µM.

In the case of `COC(=O)c1c2c(c(C)[n+]([O-])c1C)C(=O)C(NCc1ccc(F)cc1)=CC2=O`, in the assay on MDA-MB-468 breast, the GI50 is 0.598 µM and the TGI was determined as 2.15 µM.

On to `O=C(N/N=C/c1cc(Cl)ccc1O)c1ccccc1Nc1ccnc(C(F)(F)F)c1`, for which, in the assay with MDA-MB-468 breast, the GI50 was 0.265 µM and the TGI worked out at 2.05 µM.

Consider `Cc1ccc(N=Nc2c(O)ccc3n[nH]nc23)cc1`, for which, in the assay on MDA-MB-468 breast, the GI50 was 4.14 µM and the TGI is 49 µM.

For `CC1=NN(c2cccc(Cl)c2)C(=O)/C1=C\C=C\c1ccccc1`, in the assay with MDA-MB-468 breast, the GI50 is 1.66 µM and the TGI came out at 6.14 µM.

With `Cc1c(Cl)cccc1NC(=O)c1sc2nc3c(cc2c1N)C(=O)CCC3`, in the assay on MDA-MB-468 breast, the GI50 is 0.0453 µM and the TGI stood at 71.7 µM.

Take `c1cc(C2CCCCC2)ccc1-c1cnc2nonc2n1`: in the assay on MDA-MB-468 breast, the GI50 is 0.316 µM and the TGI came to 1.36 µM.

As for `Cc1ccc2c(n1)C(=O)C(Cl)=C(Nc1cc(C(F)(F)F)cc(C(F)(F)F)c1)C2=O`, in the assay on MDA-MB-468 breast, the GI50 is 2.01 µM and the TGI came out at 4.57 µM.

Take `CC(C)(O)CCc1cccc(C(=O)c2cnn(-c3ccc(F)cc3)c2N)c1`: in the assay on MDA-MB-468 breast, the GI50 was 13.2 µM and the TGI was greater than 25 µM.

Turning to `CC(C)c1[nH]nc2c(NCc3ccc(-c4ccccn4)cc3)nc(SCCN)nc12`, in the assay with MDA-MB-468 breast, the GI50 was 0.00335 µM and the TGI is 0.0127 µM.

These data come from PubChem BioAssay (NCI).
